The values that follow come from paper PMC10484922, “Discovery of a selective and biologically active low-molecular weight antagonist of human interleukin-1β” (Nature Communications, 2023).

Molecules are shown by their SMILES. Several values for one entry are separate records, joined by “and”; a condition that tells them apart may be missing. Identical values can stand only once. Like-named read-outs stand apart in the source and are kept apart here. Some results are limits rather than exact numbers.

The target in assay [1] is T1, IL-1β (Homo sapiens, UniProt P01584). Put plainly: protein-observed 1H-13C-HMQC NMR binding (I/Io of Leu60 Cδ1H3). More on the design: Mature hIL-1β was expressed in Escherichia coli; made in house; host or cells: Escherichia coli BL21 (DE3), pET17b. Conditions: hIL-1β 50 µM, 500 µM compound. The protocol:
^1H–^13C- and ^1H–^15N-HMQC spectra were recorded on Bruker AVANCE 600 MHz and 800 MHz spectrometers equipped with TXI-cryocooled probeheads. In ligand binding experiments, protein concentrations were typically 50 μM in PBS, pH 7.4. Backbone assignments of hIL-1β in the ligand-bound state and unliganded state were obtained by a combination of a 3D triple resonance experiment HNCACB and a ^15N-edited NOESY spectrum, which were processed using TOPSPIN 3.2 and analyzed using CcpNmr AnalysisAssign 3.1.0[46]. ^15N-CEST experiments were run at weak B1 radiofrequency fields of 25 and 12.5 Hz on a Bruker AVANCE 800 MHz spectrometer with 113 increments and a total sweep width of 28 ppm in the pseudo-3D dimension. Peak intensities were extracted by fitting pseudo-Voigt lineshape models using peakipy (https://github.com/j-brady/peakipy). Fitted peak intensities were subsequently used to generate CEST profiles, and exchange parameters were fitted using ChemEx (https://github.com/gbouvignies/ChemEx).
Supplementary Figure 2. 13C-NMR and 19F-NMR reporter assays to monitor early
13C-HMQC spectra of hIL-1b (50 µM) were acquired in the presence (red) and absence (blue) of 500
µM compound and rows were extracted at the w1-frequency of the peak corresponding to Leu60 […]

The target in assay [2] is T1, IL-1β. Description: TR-FRET IL-1β/hIL-1R1 receptor displacement assay. It counts as biochemical. The protocol:
After 1 h incubation at room temperature, hIL-1R1 (1–332; Alexa 647 labeled; 50 nM final concentration) and anti-His-Europium W1024 (Perkin Elmer; Cat.No. AD0401, 1 nM final concentration) were added to a final volume of 10 μl per well. […] All experiments were run in triplicates.
For orientation: Time-resolved FRET reads energy transfer from a long-lived donor to a nearby acceptor.

The target of assay [3] is T1, IL-1β. Put plainly: SPR binding of compounds to immobilized hIL-1β. More on the design: Mature hIL-1β was expressed in Escherichia coli; made in house; host or cells: Escherichia coli BL21 (DE3), pET17b. The protocol:
All SPR experiments were performed with an SPR-32 instrument (Bruker Daltonics SPR, Hamburg, Germany). SPR chips were from XanTec bioanalytics GmbH (Düsseldorf, Germany).
C-terminally avi-tagged hIL-1β protein was immobilized onto a SAHC200M chip with a neutravidin-coated surface. Immobilization was performed with a protein injection of 0.02 mg/ml IL-1β diluted in PBS pH 7.5 (Gibco 70011-036, 10×), 0.05% Tween-20 for 5 min at 10 μl/min. The running buffer for binding studies of compounds was PBS pH 7.4, 0.05% Tween-20, and 2% DMSO. For the correction of small DMSO variations between samples, injections of 6 solvent samples ranging from 1% to 3% DMSO were run. Compound measurements were performed in MICK mode (multiple injection cycles kinetic) with a dose–response of 10 concentrations. Dissociation constants for compounds (KD) were obtained by determining steady-state fit that followed the 1:1 Langmuir model.
Data analysis was performed with the Sierra Analyzer 3.4.0 software from Bruker. Signal intensities were corrected for nonspecific binding to the surface by subtracting intensities from the reference surface from those of the hIL-1β surfaces (first reference subtraction) and by subtracting the buffer injection (second reference subtraction). KD values were carried out by determining a reporting point close to the end of the injection, used for steady-state fit, in addition to a kinetic fit delivering kon- and koff-values; both fitting models followed the 1:1 Langmuir equation.
Supplementary Figure 3. De termination of binding af fi nit ie s for se l ec ted ana l ogues of 1 by SPR. a - d Gr ap hs of exemplary experimen ts are given , where the sat urat ion of hI L-1b immobil ized on a chip was monitored at various concentrations of compound 3, 12, 10, and 11, respectively. Th e saturati on reached at equ ilibri um (insert) was plo tt ed versus the admini stered concentration and the equ ilibri um bin ding constant was derived from a non-li near lea st square fitting routine. e equ ilibri um and f kinetic bin ding of (S)-2 to IL-1b (kon = 1. 15 x 105 M-1 s-1 and koff = 0. 12 s-1).
In general terms: In SPR one partner is held on a chip, and binding of the other changes the refractive index at the surface.

The mark [4] stands for this setting: Il1b wt, read-out: TR-FRET IC50, individual experiments.
Where [5] appears, read: source data, read-out: SPR Kd, Mean.
The mark [6] stands for this setting: source data, read-out: SPR Kd, individual experiments (Exp1-5).
[7] abbreviates: steady-state fit, 1:1 Langmuir, read-out: SPR KD.
Where [8] appears, read: IL-1beta, 0.01 uM, per experiment.
Where [9] appears, read: IL-1beta, 0.02 uM, per experiment.
[10] abbreviates: IL-1beta, 0.1 uM, per experiment.
Setting [11] is: IL-1beta, 0.2 uM, per experiment.
[12] abbreviates: IL-1beta, 0.6 uM, per experiment.
Where [13] appears, read: IL-1beta, 63 uM, per experiment.

T1 sequence (P01584 117-269): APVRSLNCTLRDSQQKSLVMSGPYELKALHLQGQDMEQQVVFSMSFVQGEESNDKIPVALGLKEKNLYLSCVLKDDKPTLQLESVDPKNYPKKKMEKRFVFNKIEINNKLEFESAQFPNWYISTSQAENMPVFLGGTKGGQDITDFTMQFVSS

As to `Cc1ccc2c(c1)NC(=O)C2(O)c1cc(-c2ccc(C(=O)O)cc2)ccc1O` (centres unmarked) [Compound 10], in assay [1], the “I/Io (ratio of peak intensities of Leu60 Cδ1H3 in 1H-13C-HMQC spectra in presence and absence of ligand)” value is 0.1 (N = 1). Moreover, the IC50 (usually the concentration that gives 50% inhibition) is 200 µM and 134 µM in assay [2] (setting [4]); 178 ± 38 µM in assay [2] (read-out: TR-FRET IL-1β IC50). Also, the Kd (in general, the equilibrium constant for the complex coming apart) in assay [3] (setting [5]) was 43.6 µM; in assay [3] (setting [6]), 58 µM and 63 µM and 27 µM and 26 µM; in assay [3] (setting [7]), 44 ± 17 µM.

Consider `O=C(O)c1ccccc1-c1ccc(O)c(C2(O)C(=O)Nc3cc(Cl)ccc32)c1` (centres unmarked) [Compound 11], for which, in assay [1], the “I/Io (ratio of peak intensities of Leu60 Cδ1H3 in 1H-13C-HMQC spectra in presence and absence of ligand)” value is on record as <0.1 (N = 1). In addition, the IC50 in assay [2] (setting [4]) was 140 µM and 130 µM and 138 µM and 97.9 µM and 136 µM and 106 µM and 133 µM; in assay [2] (read-out: TR-FRET IL-1β IC50), 126 ± 17 µM; in assay [2] (summary, read-out: TR-FRET IL-1beta IC50, AVRG) it was 126 µM. Further, the Kd in assay [3] (setting [5]) was 31.8 µM; in assay [3] (setting [6]), 34 µM and 37 µM and 36 µM and 26.3 µM and 25.7 µM; in assay [3] (setting [7]), 32 ± 5 µM.

`Cc1ccc2c(c1)NC(=O)[C@@]2(c1cn[nH]c1)c1cc(-c2ccc(C(=O)O)cc2C(=O)O)ccc1O` [Compound (S)-2]: in assay [1], the “I/Io (ratio of peak intensities of Leu60 Cδ1H3 in 1H-13C-HMQC spectra in presence and absence of ligand)” value was below 0.1. The “TR-FRET calculated % inhibition” value in assay [2] (setting [8]) was -3% and -1% and 0%; in assay [2] (setting [9]), -1% and 1% and 0%; in assay [2] (setting [10]) it was 1% and 3%; in assay [2] (setting [11]) it was 10% and 7%; in assay [2] (setting [12]), 20% and 23% and 21%; in assay [2] (IL-1beta, 2 uM, per experiment), 40% and 39%. The “TR-FRET calculated % inhibition” value was 61% and 62% and 60% in assay [2] (IL-1beta, 6 uM, per experiment); 80% and 78% and 79% in assay [2] (IL-1beta, 20 uM, per experiment); 92% in assay [2] (setting [13]). In addition, the TR-FRET raw data is 90 and 159 and 163 and 162 and 161 in assay [2] (setting [8]); 89 and 157 and 158 and 161 in assay [2] (setting [9]); 87 and 156 and 155 and 157 in assay [2] (setting [10]); 78 and 144 and 149 and 146 and 151 in assay [2] (setting [11]); 67 and 130 and 131 and 128 in assay [2] (setting [12]); 16 and 27 and 29 and 28 in assay [2] (setting [13]). Moreover, the TR-FRET raw data in assay [2] (IL-1beta, 200 uM, per experiment) is 12 and 16 and 17. The inhibition (in general, how much of the control response was suppressed) at 0.2 µM in assay [2] (IL-1beta, 0.2 uM, per experiment, read-out: TR-FRET calculated % inhibition) is 13%. The inhibition at 0.6 µM in assay [2] (IL-1beta, 0.6 uM, per experiment, read-out: TR-FRET calculated % inhibition) is 28%. For the same compound, in assay [2] (IL-1beta, 2 uM, per experiment, read-out: TR-FRET calculated % inhibition), the inhibition at 2 µM was 55%. The inhibition at 6 µM in assay [2] (IL-1beta, 6 uM, per experiment, read-out: TR-FRET calculated % inhibition) was 72%. The inhibition at 20 µM in assay [2] (IL-1beta, 20 uM, per experiment, read-out: TR-FRET calculated % inhibition) is 88%. The inhibition at 63 µM in assay [2] (IL-1beta, 63 uM, per experiment, read-out: TR-FRET calculated % inhibition) is 95%. For the same compound, the inhibition at 200 µM in assay [2] (IL-1beta, 200 uM, per experiment, read-out: TR-FRET calculated % inhibition) was 100%. Moreover, the concentration for half-maximal inhibition (IC50) in assay [2] (setting [4]) is 2.1 µM and 4.2 µM and 4.6 µM and 4.4 µM and 4.7 µM; in assay [2] (read-out: TR-FRET IL-1β IC50), 4 ± 1.1 µM. Also, the off-rate constant (koff) (usually the rate constant with which the complex falls apart) in assay [3] (kinetic fit) was 0.12 s⁻¹. The kon (in general, the rate constant with which the complex forms) in assay [3] (kinetic fit) turned out to be 120000 M⁻¹ s⁻¹. Further, the Kd is 1.1 µM in assay [3] (setting [5]); 1.1 µM (2×) and 1 µM in assay [3] (setting [6]); 1.1 µM in assay [3] (setting [7]).
